Test results: patent US5120738A, “Pantothenic acid derivatives” (Fujirebio Inc., priority 1990, dated 1992)

Molecular target: T1, acyl CoA-cholesterol-acyltransferase (ACAT) (Rattus norvegicus, UniProt Q7TQM4)
T1 construct: a microsome fraction prepared from a rat liver; from tissue; host or cells: rat liver microsome fraction
T1 sequence (Q7TQM4 1-524): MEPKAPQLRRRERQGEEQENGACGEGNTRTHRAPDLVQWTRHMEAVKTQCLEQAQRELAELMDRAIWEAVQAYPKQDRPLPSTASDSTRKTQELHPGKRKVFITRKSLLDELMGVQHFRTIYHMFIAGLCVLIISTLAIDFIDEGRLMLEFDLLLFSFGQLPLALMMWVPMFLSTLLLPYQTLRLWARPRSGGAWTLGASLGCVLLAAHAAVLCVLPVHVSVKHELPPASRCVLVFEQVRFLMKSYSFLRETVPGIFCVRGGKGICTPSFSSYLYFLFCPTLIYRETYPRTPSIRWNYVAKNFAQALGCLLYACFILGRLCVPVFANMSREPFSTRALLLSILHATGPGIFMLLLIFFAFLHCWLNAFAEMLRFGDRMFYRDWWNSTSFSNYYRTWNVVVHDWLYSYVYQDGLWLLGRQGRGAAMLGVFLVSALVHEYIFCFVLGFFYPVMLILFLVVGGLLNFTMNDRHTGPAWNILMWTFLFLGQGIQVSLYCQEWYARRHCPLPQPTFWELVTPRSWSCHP
Test: ACAT inhibition test (cholesteryl oleate formed from [1-14C]oleoylCoA, rat liver microsome fraction)
Format: biochemical
Details: for inhibition at 1 µM: 10^-6 M test drug, 37° C., 4 minutes, relative to control without test compound; for IC50: in square brackets behind the % inhibition, range in parentheses not explained, read-out: ACAT inhibition [IC50 × 10^-7 M]
Method: ACAT inhibition tests were carried out by measuring cholesteryl oleate produced from [1-^14 C]oleoylCoA and endocellular cholesterol similarly to the method of Helgerud et al. [cf.
Thereafter, 4.2 ml of methanol and 8.3 ml of chloroform were added to the reaction mixture to stop the reaction. Then, 2.5 ml of water was added and after shaking the mixture sufficiently a chloroform layer was separated. After concentrating it, the chloroform layer was subjected to thin layer chromatography. The cholesteryl oleate formed was separated and its radioactivity was measured by a liquid scientilaltion counter.
On the other hand, the same tests as above were repeated without using test compounds. The radioactivity of the control thus obtained was used as a standard for calculating the ACAT inhibiting activity of each test compound.

Compound	inhibition at 1 µM	IC50
CCCCCCCC/C=C\CCCCCCCC(=O)Nc1ccccc1NC(=O)CCNC(=O)C1OC(C)(C)OCC1(C)C (stereo not drawn) [Example 1, N-[2-(Oleoylamino)phenyl]-3-[N-(2,2,5,5-tetramethyl-1,3-dioxane-4-carbonyl)amino]propanamide]		295 nM
CCCCCCCC/C=C\CCCCCCCC(=O)Nc1ccccc1NC(=O)CCNC(=O)C(OC(C)=O)C(C)(C)COC(C)=O (stereo not drawn) [Example 2, N-[2-(Oleoylamino)phenyl]-3-[N-(2,4-diacetoxy-3,3-dimethyl-1-oxobutyl)amino]propanamide]	64.8%	274 nM
CCCCC/C=C\C/C=C\CCCCCCCC(=O)Nc1ccccc1NC(=O)CCNC(=O)C1OC(C)(C)OCC1(C)C (stereo not drawn) [Example 4, N-2-(Linoleoylamino)phenyl]-3-[[N-(2,2,5,5-tetramethyl-1,3-dioxane-4-carbonyl)amino]propanamide]	79.8%	
CC/C=C\C/C=C\C/C=C\CCCCCCCC(=O)Nc1ccccc1NC(=O)CCNC(=O)C1OC(C)(C)OCC1(C)C (stereo not drawn) [Example 5]	56%	
CCCCC/C=C\C/C=C\CCCCCCCC(=O)Nc1cccc(NC(=O)CCNC(=O)C2OC(C)(C)OCC2(C)C)c1 (stereo not drawn) [Example 9, [N-3-(Linoleylamino)phenyl]-3-[N-(2,2,5,5-tetramethyl-1,3-dioxane-4-carbonyl)amino]propanamide]	51.8%	
CCCCCCCC/C=C\CCCCCCCC(=O)Nc1ccccc1OC(=O)CCNC(=O)C1OC(C)(C)OCC1(C)C (stereo not drawn) [Example 15, 2-(Oleoylamino)phenyl 3-[N-(2,2,5,5-tetramethyl-1,3-dioxane-4-carbonyl)amino]propionate]	79.6%	
CCCCCCCC/C=C\CCCCCCCC(=O)NCCNC(=O)CCNC(=O)C1OC(C)(C)OCC1(C)C (stereo not drawn) [Example 33]		299 nM
CCCCCCCC/C=C\CCCCCCCC(=O)NCCCNC(=O)CCNC(=O)C1OC(C)(C)OCC1(C)C (stereo not drawn) [Example 34]		385 nM
CCCCCCCC/C=C\CCCCCCCC(=O)NCCCCNC(=O)CCNC(=O)C1OC(C)(C)OCC1(C)C (stereo not drawn) [Example 37, N-(4-Oleoylaminobutyl)-3-[N-(2,2,5,5-tetramethyl-1,3-dioxane-4-carbonyl)amino]propanamide]		286 nM
CCCCCCCC/C=C\CCCCCCCC(=O)NCCOC(=O)CCNC(=O)C1OC(C)(C)OCC1(C)C (stereo not drawn) [Example 44, 2-(N-Oleoylamino)ethyl 3-[N-(2,2,5,5-tetramethyl-1,3-dioxane-4-carbonyl)amino]propionate]		686 nM
CCCCCCCC/C=C\CCCCCCCC(=O)NCCCOC(=O)CCNC(=O)C1OC(C)(C)OCC1(C)C (stereo not drawn) [Example 47, 3-(N-oleoylamino]propyl 3-[N-(2,2,5,5-tetramethyl-1,3-dioxane-4-carbonyl)amino]propionate]		250 nM
CCCCCCCC/C=C\CCCCCCCC(=O)NCCCCCOC(=O)CCNC(=O)C1OC(C)(C)OCC1(C)C (stereo not drawn) [Example 66]		355 nM
CCCCCCCC/C=C\CCCCCCCC(=O)NCCCCCCOC(=O)CCNC(=O)C1OC(C)(C)OCC1(C)C (stereo not drawn) [Example 67]		389 nM
CCCCCCCC/C=C\CCCCCCCC(=O)N[C@H]1CCCC[C@@H]1NC(=O)CCNC(=O)C1OC(C)(C)OCC1(C)C (stereo partly drawn) [Example 70, N-[(1S,2S)-2-(Oleoylamino)cyclohexane]-3-[N-(2,2,5,5-tetramethyl-1,3-dioxane-4-carbonyl)amino]propanamide]		162 nM
CCCCCCCC/C=C\CCCCCCCC(=O)N[C@@H]1CCCC[C@H]1OC(=O)CCNC(=O)C1OC(C)(C)OCC1(C)C (stereo partly drawn) [Example 77, (1R,2R)-2-(Oleoylamino)cyclohexane-1-yl 3-[N-(2,2,5,5-tetramethyl-1,3-dioxane-4-carbonyl)amino]propionate]		210 nM
CCCCCCCC/C=C\CCCCCCCC(=O)N[C@H]1CCCC[C@@H]1OC(=O)CCNC(=O)C1OC(C)(C)OCC1(C)C (stereo partly drawn) [Example 78, (1S,2S)-2-(Oleoylamino)cyclohexane-1-yl 3-[N-(2,2,5,5-tetramethyl-1,3-dioxane-4-carbonyl)amino]propionate]		40.1 nM
CCCCC/C=C\C/C=C\CCCCCCCC(=O)N[C@H]1CCCC[C@@H]1OC(=O)CCNC(=O)C1OC(C)(C)OCC1(C)C (stereo partly drawn) [Example 80, (1S,2S)-2-(Linoleoylamino)cyclohexane-1-yl 3-[N-(2,2,5,5-tetramethyl-1,3-dioxane-4-carbonyl)amino]propionate]		108 nM
CCCCCCCC/C=C\CCCCCCCC(=O)N1CCCN(C(=O)CCNC(=O)C(OC(C)=O)C(C)(C)COC(C)=O)CC1 (stereo not drawn) [Example 194, 1-Oleoyl-4-(1-oxo-3-N-(1-oxo-2,4-diacetoxy-3,3-dimethylbutyl)aminopropyl)tetrahydro-1,4-diazepine]	62.6%	
CCCCCCCCC=CCCCCCCCNC(=O)N1CCN(C(=O)CCNC(=O)C2OC(C)(C)OCC2(C)C)CC1 (stereo not drawn) [Example 198]	84.3%	
CCCCCCCCCCC(C)C(=O)N1CCN(C(=O)CCNC(=O)C2OC(C)(C)OCC2(C)C)CC1 (stereo not drawn) [Example 199]	53.7%	

Other lines, results leading:

inhibition at 1 µM	IC50	Compound
61.1%		CCCCCCCC/C=C\CCCCCCCC(=O)N1CCCC(NC(=O)CCNC(=O)C2OC(C)(C)OCC2(C)C)C1 (single isomer, unassigned) [Example 171]
	198 nM	CCCCCCCC/C=C\CCCCCCCC(=O)N[C@H]1CCCC[C@@H]1NC(=O)CCNC(=O)[C@H](OC(C)=O)C(C)(C)COC(C)=O [Example 71]
	155 nM	CCCCCCCC/C=C\CCCCCCCC(=O)N[C@H]1CCCC[C@@H]1NC(=O)CCNC(=O)[C@H](O)C(C)(C)CO [Example 74, N-[(1S,2S)-2-(Oleoylamino)cyclohexane-1-yl]-3-[N-[(2R)-2,4-dihydroxy-3,3-dimethyl-1-oxobutyl]amino]propanamide]
65.7%		CCCCCCCC/C=C\CCCCCCCC(=O)NC[C@@H]1CCCN1C(=O)CCNC(=O)C(O)C(C)(C)CO (stereo partly drawn) [Example 166]
64%		CCCCCCCC/C=C\CCCCCCCC(=O)NC[C@H]1CCCN1C(=O)CCNC(=O)C1OC(C)(C)OCC1(C)C (stereo partly drawn) [Example 167]
75.7%		CCCCCCCC/C=C\CCCCCCCC(=O)NC1CCCN(C(=O)CCNC(=O)C2OC(C)(C)OCC2(C)C)C1 (stereo not drawn) [Example 168]
58.3%		CCCCCCCC/C=C\CCCCCCCC(=O)NC1CCCN(C(=O)CCNC(=O)C(O)C(C)(C)CO)C1 (stereo not drawn) [Example 169]
18.9%		CCCCCCCC/C=C\CCCCCCCC(=O)N1CCN(C(=O)CCNC(=O)C(O)C(C)(C)CO)CC1 (stereo not drawn) [Example 193]
48.7%		CCCCCCCC/C=C\CCCCCCCC(=O)N1CCCN(C(=O)CCNC(=O)C(O)C(C)(C)CO)CC1 (stereo not drawn) [Example 195]
